According to ChEMBL document CHEMBL3045792, “Synthesis, antimicrobial activity, and molecular modeling of novel 4-(3-(4-benzylpiperazin-1-yl)propoxy)-7-methoxy-3-substituted phenyl-2H-chromen-2-one” (2013):
Calls of active or inactive are those of the source. The calls are words filed in the database; no cut-off is given here.

Columns and labels:
Format in all cases: functional
Fusarium oxysporum [1] = test: Antifungal activity against Fusarium oxysporum assessed as growth inhibition at 900 ug/ml
Priestia megaterium [2] = test: Antibacterial activity against Bacillus megaterium assessed as growth inhibition at 900 ug/ml by NCCLS […] method; conditions: read-out: IZ
Bacillus subtilis [3] = test: Antibacterial activity against Bacillus subtilis assessed as growth inhibition at 600 ug/ml by NCCLS […] method; conditions: read-out: IZ
Bacillus pumilus [4] = test: Antibacterial activity against Bacillus pumilus assessed as growth inhibition at 600 ug/ml by NCCLS […] method; conditions: read-out: IZ
Bacillus pumilus [5] = test: Antibacterial activity against Bacillus pumilus assessed as growth inhibition at 900 ug/ml by NCCLS […] method; conditions: read-out: IZ
Colletotrichum falcatum [6] = test: Antifungal activity against Glomerella tucumanensis assessed as growth inhibition at 900 ug/ml; conditions: read-out: IZ
Escherichia coli [7] = test: Antibacterial activity against Escherichia coli assessed as growth inhibition at 600 ug/ml by NCCLS […] method
Escherichia coli [8] = test: Antibacterial activity against Escherichia coli assessed as growth inhibition at 900 ug/ml by NCCLS […] method
Fusarium oxysporum [9] = test: Antifungal activity against Fusarium oxysporum assessed as growth inhibition at 600 ug/ml
Proteus vulgaris [10] = test: Antibacterial activity against Proteus vulgaris assessed as growth inhibition at 900 ug/ml by NCCLS […] method; conditions: read-out: IZ
Bacillus subtilis [11] = test: Antibacterial activity against Bacillus subtilis assessed as growth inhibition at 900 ug/ml by NCCLS […] method; conditions: read-out: IZ
Candida albicans [12] = test: Antifungal activity against Candida albicans assessed as growth inhibition at 300 ug/ml; conditions: read-out: IZ
Exserohilum rostratum [13] = test: Antifungal activity against Setosphaeria rostrata assessed as growth inhibition at 1200 ug/ml; conditions: read-out: IZ
Klebsiella pneumoniae [14] = test: Antibacterial activity against Klebsiella pneumoniae assessed as growth inhibition at 900 ug/ml by NCCLS […] method; conditions: read-out: IZ
Priestia megaterium [15] = test: Antibacterial activity against Bacillus megaterium assessed as growth inhibition at 600 ug/ml by NCCLS […] method; conditions: read-out: IZ
Fusarium oxysporum [16] = test: Antifungal activity against Fusarium oxysporum assessed as growth inhibition at 1200 ug/ml
Exserohilum rostratum [17] = test: Antifungal activity against Setosphaeria rostrata assessed as growth inhibition at 900 ug/ml; conditions: read-out: IZ
Proteus mirabilis [18] = test: Antibacterial activity against Proteus mirabilis assessed as growth inhibition at 600 ug/ml by NCCLS […] method; conditions: read-out: IZ
Exserohilum rostratum [19] = test: Antifungal activity against Setosphaeria rostrata assessed as growth inhibition at 600 ug/ml; conditions: read-out: IZ
Streptococcus pyogenes [20] = test: Antibacterial activity against Streptococcus pyogenes assessed as growth inhibition at 900 ug/ml by NCCLS […] method; conditions: read-out: IZ
Klebsiella aerogenes [21] = test: Antibacterial activity against Enterobacter aerogenes assessed as growth inhibition at 900 ug/ml by NCCLS […] method; conditions: read-out: IZ
Klebsiella aerogenes [22] = test: Antibacterial activity against Enterobacter aerogenes assessed as growth inhibition at 600 ug/ml by NCCLS […] method; conditions: read-out: IZ
Colletotrichum falcatum [23] = test: Antifungal activity against Glomerella tucumanensis assessed as growth inhibition at 300 ug/ml; conditions: read-out: IZ
Streptococcus pyogenes [24] = test: Antibacterial activity against Streptococcus pyogenes assessed as growth inhibition at 600 ug/ml by NCCLS […] method; conditions: read-out: IZ
Colletotrichum falcatum [25] = test: Antifungal activity against Glomerella tucumanensis assessed as growth inhibition at 600 ug/ml; conditions: read-out: IZ
Exserohilum rostratum [26] = test: Antifungal activity against Setosphaeria rostrata assessed as growth inhibition at 300 ug/ml; conditions: read-out: IZ
Proteus vulgaris [27] = test: Antibacterial activity against Proteus vulgaris assessed as growth inhibition at 600 ug/ml by NCCLS […] method; conditions: read-out: IZ
Fusarium oxysporum [28] = test: Antifungal activity against Fusarium oxysporum assessed as growth inhibition at 300 ug/ml
Colletotrichum falcatum [29] = test: Antifungal activity against Glomerella tucumanensis assessed as growth inhibition at 1200 ug/ml; conditions: read-out: IZ
Klebsiella pneumoniae [30] = test: Antibacterial activity against Klebsiella pneumoniae assessed as growth inhibition at 600 ug/ml by NCCLS […] method; conditions: read-out: IZ
Staphylococcus aureus [31] = test: Antibacterial activity against Staphylococcus aureus assessed as growth inhibition at 600 ug/ml by NCCLS […] method; conditions: read-out: IZ
Candida albicans [32] = test: Antifungal activity against Candida albicans assessed as growth inhibition at 900 ug/ml; conditions: read-out: IZ
Staphylococcus aureus [33] = test: Antibacterial activity against Staphylococcus aureus assessed as growth inhibition at 900 ug/ml by NCCLS […] method; conditions: read-out: IZ
Candida albicans [34] = test: Antifungal activity against Candida albicans assessed as growth inhibition at 1200 ug/ml; conditions: read-out: IZ
Proteus mirabilis [35] = test: Antibacterial activity against Proteus mirabilis assessed as growth inhibition at 900 ug/ml by NCCLS […] method; conditions: read-out: IZ
Candida albicans [36] = test: Antifungal activity against Candida albicans assessed as growth inhibition at 600 ug/ml; conditions: read-out: IZ

With COc1ccc(CN2CCN(CCCOc3c(-c4ccccc4)c(=O)oc4cc(OC)ccc34)CC2)cc1 as the molecule, how does the “growth inhibition (GI)” value (Fusarium oxysporum [1]) read?
Its value is “inactive”.

And the zone of inhibition at 900 µg/mL (Priestia megaterium [2])?
Its zone of inhibition at 900 µg/mL is 8.19 mm.

And the zone of inhibition at 600 µg/mL (Bacillus subtilis [3])?
Its zone of inhibition at 600 µg/mL is 4.28 mm.

What about the zone of inhibition at 600 µg/mL (Bacillus pumilus [4]) of the same molecule?
The zone of inhibition at 600 µg/mL was 5.25 mm.

What about the zone of inhibition at 900 µg/mL (Bacillus pumilus [5]) of the same molecule?
Its zone of inhibition at 900 µg/mL is 10.5 mm.

What about the zone of inhibition at 900 µg/mL (Colletotrichum falcatum [6]) of the same molecule?
Its zone of inhibition at 900 µg/mL is 17 mm.

And the “growth inhibition (GI)” value (Escherichia coli [7])?
The value was “inactive”.

And the “growth inhibition (GI)” value (Escherichia coli [8])?
Its value is “inactive”.

What about the “growth inhibition (GI)” value (Fusarium oxysporum [9]) of the same molecule?
Its value is “inactive”.

And the zone of inhibition at 900 µg/mL (Proteus vulgaris [10])?
Its zone of inhibition at 900 µg/mL is 4.25 mm.

What about the zone of inhibition at 900 µg/mL (Bacillus subtilis [11]) of the same molecule?
The zone of inhibition at 900 µg/mL was 8.9 mm.

What about the zone of inhibition at 300 µg/mL (Candida albicans [12]) of the same molecule?
The zone of inhibition at 300 µg/mL was 2.76 mm.

What about the zone of inhibition at 1200 µg/mL (Exserohilum rostratum [13]) of the same molecule?
Its zone of inhibition at 1200 µg/mL is 28.8 mm.

And the zone of inhibition at 900 µg/mL (Klebsiella pneumoniae [14])?
Its zone of inhibition at 900 µg/mL is 10.1 mm.

What about the zone of inhibition at 600 µg/mL (Priestia megaterium [15]) of the same molecule?
The zone of inhibition at 600 µg/mL was 4.26 mm.

And the “growth inhibition (GI)” value (Fusarium oxysporum [16])?
The value was “inactive”.

What about the zone of inhibition at 900 µg/mL (Exserohilum rostratum [17]) of the same molecule?
Its zone of inhibition at 900 µg/mL is 15 mm.

And the zone of inhibition at 600 µg/mL (Proteus mirabilis [18])?
Its zone of inhibition at 600 µg/mL is 5.25 mm.

And the zone of inhibition at 600 µg/mL (Exserohilum rostratum [19])?
The zone of inhibition at 600 µg/mL was 7.56 mm.

What about the zone of inhibition at 900 µg/mL (Streptococcus pyogenes [20]) of the same molecule?
Its zone of inhibition at 900 µg/mL is 4.19 mm.

What about the zone of inhibition at 900 µg/mL (Klebsiella aerogenes [21]) of the same molecule?
The zone of inhibition at 900 µg/mL was 8.9 mm.

What about the zone of inhibition at 600 µg/mL (Klebsiella aerogenes [22]) of the same molecule?
Its zone of inhibition at 600 µg/mL is 4.24 mm.

And the zone of inhibition at 300 µg/mL (Colletotrichum falcatum [23])?
Its zone of inhibition at 300 µg/mL is 4.08 mm.

What about the zone of inhibition at 600 µg/mL (Streptococcus pyogenes [24]) of the same molecule?
Its zone of inhibition at 600 µg/mL is 2.08 mm.

What about the zone of inhibition at 600 µg/mL (Colletotrichum falcatum [25]) of the same molecule?
The zone of inhibition at 600 µg/mL was 8.62 mm.

And the zone of inhibition at 300 µg/mL (Exserohilum rostratum [26])?
The zone of inhibition at 300 µg/mL was 3.8 mm.

And the zone of inhibition at 600 µg/mL (Proteus vulgaris [27])?
The zone of inhibition at 600 µg/mL was 2 mm.

What about the “growth inhibition (GI)” value (Fusarium oxysporum [28]) of the same molecule?
The value was “inactive”.

What about the zone of inhibition at 1200 µg/mL (Colletotrichum falcatum [29]) of the same molecule?
The zone of inhibition at 1200 µg/mL was 31.8 mm.

And the zone of inhibition at 600 µg/mL (Klebsiella pneumoniae [30])?
Its zone of inhibition at 600 µg/mL is 5.48 mm.

And the zone of inhibition at 600 µg/mL (Staphylococcus aureus [31])?
The zone of inhibition at 600 µg/mL was 3 mm.

And the zone of inhibition at 900 µg/mL (Candida albicans [32])?
The zone of inhibition at 900 µg/mL was 11 mm.

And the zone of inhibition at 900 µg/mL (Staphylococcus aureus [33])?
Its zone of inhibition at 900 µg/mL is 6.25 mm.

And the zone of inhibition at 1200 µg/mL (Candida albicans [34])?
The zone of inhibition at 1200 µg/mL was 23.2 mm.

What about the zone of inhibition at 900 µg/mL (Proteus mirabilis [35]) of the same molecule?
The zone of inhibition at 900 µg/mL was 10.5 mm.

And the zone of inhibition at 600 µg/mL (Candida albicans [36])?
The zone of inhibition at 600 µg/mL was 5.62 mm.
